Data: patent publication US20100273868A1, “R-Zileuton for Use in Conditions Associated with Increased 5-Lipoxygenase and/or Leukotriene Activity (EG Asthma)” (Cornerstone Therapeutics Inc., priority 2007, published 2010)

Columns and labels:
[1] = tested on: infiltration of inflammatory cells to the airways; assay: Mouse model of asthma, ovalbumin challenge, BAL 8 h after final challenge (Example 5); type: in vivo, BALB/c mice; settings: for inhibition of eosinophils in BAL fluid / inhibition of neutrophil infiltration in BAL fluid / inhibition of the increase in total cellularity of BAL fluid: 4 mg/kg; for efficacy compared with racemic zileuton or S(−) zileuton: 2 or 4 mg/kg oral once a day
Protocol: Male BALB/c mice were obtained from Taconic Labs (Taconic, N.Y.) and maintained on an OVA-free (ovalbumin-free) diet. After equilibration of at least 5 days, animals were sensitized to OVA and then challenged by the following procedure. On days 1 and 14, sensitization was performed by intraperitoneal (ip) injections of 10 μg OVA emulsified in 2 mg Al(OH)3 (aluminum hydroxide (Aldrox)) in a volume of […]. On days 29, 30 and 31, allergen challenge was performed via intranasal instillation of 20 μL (10 μL/nare) of OVA (1 mg/mL) under light isoflurane anesthesia.
The background control group received no sensitization and no challenge. The sham control group underwent the OVA sensitization procedure, but was challenged with PBS. The vehicle control group was used to determine the maximal response level achievable.
Animals were given Zileuton (at 2 or 4 mg/kg, by mouth (po), once daily (qd)) or (orally) 30 minutes prior to each ovalbumin challenge. Eight hours after the final ovalbumin challenge, animals were sacrificed and bronchoalveolar lavage (BAL) was performed. A tracheal tube was inserted into the trachea and the lungs were lavaged 2 times with pyrogen-free, sterile, PBS containing 0.01% EDTA and 0.05% BSA (Bovine serum albumin). Lavage fluid, maintained at room temperature, was slowly injected into the lungs; lungs were manually massaged to distribute fluid for 30 seconds, bronchoalveolar lavage fluid (BALF) was slowly withdrawn and salvaged to individually-labeled, sterile, polypropylene tubes. The procedure was repeated 2 times/animal and the lavage fluids were pooled. The magnitude of the infiltration of inflammatory cells to the airways was determined by flow cytometry.

[2] = tested on: LTB4 production in human whole blood; assay: Human whole blood assay of LTB4 inhibition; type: cell-based; settings: for IC50: A23187 50 μM
Protocol: The potency of racemic and (R)-zileuton was assessed in fresh human whole blood essentially by the methods of Carter et al., J. Pharm. Exp. Ther. 1991: 256:929. Briefly, 0.5.ml of heparinized (20 USP U/ml) human blood from each donor was incubated with vehicle (DMSO), or various concentrations of racemic zileuton, (R)-zileuton or (S)-zileuton (prepared in DMSO) for fifteen minutes at 37° C. Eicosanoid biosynthesis was initiated by the addition of calcium ionophore A23187 in DMSO to a final concentration of 50 μM (final DMSO concentration of 1%). Samples were incubated for an additional 30 minutes at 37° C. in the presence of A23187. The reaction was terminated by cooling in an ice bath for 2 minutes followed by centrifugation. The plasma was then salvaged to an EIA buffer (1M phosphate buffer, pH 7.4) then stored at −80° C. until assay. The level of LTB4 was analyzed by enzyme immunoassay.

[3] = tested on: LTB4 production in canine whole blood; assay: Ex vivo inhibition of A23187-stimulated LTB4 production in canine whole blood after oral dosing; settings: Canis lupus familiaris, dogs; for inhibition at 5 mg/kg: 5 mg/kg oral; for inhibition at 10 mg/kg: 10 mg/kg oral
Protocol: To determine the pharmacodynamics of racemic and (R)-zileuton, ex vivo, in fresh canine whole blood, a 0.5 ml aliquot was removed from each pharmacokinetic sample of the study. Each 0.5 ml aliquot of blood was placed into an individually-labeled, 1.5 ml polypropylene tube. Five (5) μl of a 5 mM calcium ionophore A23187 solution (in DMSO) was added to each sample and mixed for 10 seconds on a vortex. Final concentration of A23187 in whole blood was 50 μM (final DMSO concentration was 1%). After mixing, each sample was placed into a 37° C. circulating water bath and allowed to incubate for 30 minutes. […] After incubation, each sample was removed from the water bath and immediately placed onto wet ice for 2 minutes. The samples were removed from the ice after 2 minutes and immediately centrifuged in an Eppendorf Microfuge (VWR Scientific, USA) at 14,000 rpm for 2 minutes at ambient room temperature. After centrifugation, the supernatant (plasma) was collected, diluted into EIA buffer (1M phosphate buffer, pH 7.4) then stored at −80° C. until assay. The level of LTB4 was analyzed by enzyme immunoassay (Cayman Chemical Co., Ann Arbor, Mich.).

[4] = Plasma concentration-time profile (AUC) after oral dosing to dogs; type: in vivo, beagle dogs; settings: for AUC: beagle, dog, plasma, gelcaps
Protocol: The plasma concentration-time profiles for racemic zileuton and (R)-zileuton were evaluated in beagle dogs dosed orally with either 10 mg/kg racemic zileuton or 5 mg/kg (R)-zileuton in gelcaps. Following oral dosing blood samples were collected from the test animals into sodium-EDTA anticoagulant tubes at selected time points up to 48 hours post-dose, processed into plasma and analysed by an LC-MS/MS method for zileuton concentration. The LC-MS/MS method utilized a 0.1% trifluoroacetic in water and methanol gradient HPLC system (initial 45:55 to 10:90% over 4 minutes with a Zorbax SB-C18 4.6×30 mm column at a flow rate of 1.5 mL/min). The retention time of zileuton was 2.0 minutes. A stable labeled version of zileuton was used to internally standardize the analysis. Mass spectrometer analysis by electrospray ionization of the HPLC eluent was performed in SRM mode (ESI 3.5 kV; tube lens voltage 71.0; capillary offset 40.3; L11-24.3; capillary temperature 350° C.; dwell 100 msec; collision energy 15 eV). Plasma concentrations of zileuton in the test samples were estimated by interpolation of sample peak area/height data from a standard concentration-peak area/height plot. The area under the plasma concentration-time (AUC) was calculated by non-compartmental pharmacokinetic analysis (WinNonlin, Pharsight, Mountain View, Calif.) using the trapezoidal rule.

[5] = tested on: cellular infiltration of airways; assay: Murine model of allergic lung inflammation, ovalbumin challenge, BAL 24 h after final challenge (Example 4); type: in vivo, BALB/c mice; settings: oral
Protocol: Male, BALB/c mice were sensitized intraperitoneally (i.p.) with ovalbumin (10 μg) on days 1 and 14. To provoke an allergic lung inflammatory response, the mice received three intransal (i.n.) challenges with ovalbumin (100 μg) (or saline for sham) on days 29, 30 and 31. After sensitization period, animals were treated orally 30 minutes prior to ovalbumin challenge on days 29, 30 and 31 according to the following regimes: racemic Zileuton (10 mg/kg, four times daily (qid)), Montelukast (0.17 mg/kg, once daily (qd)), Dexamethasone (4 mg/kg, once daily (qd)). Twenty-four hours following the final challenge (n=16 per group, pool of two separate studies), animals were sacrificed and bronchoalveolar lavage (BAL) was performed. Infiltration of airways by inflammatory cells was quantified by cytospin, microscopy and/or flow cytometry. The dose levels and frequencies of zileuton and montelukast were chosen to approximate the human clinical use. Zileuton, Montelukast and Dexamethasone were compared to their respective “qid” and “qd” controls.

C[C@H](c1cc2ccccc2s1)N(O)C(N)=O [(R)-zileuton]
inhibition of the total cell infiltration ([1]; 2 mg/kg, po, qd, versus vehicle control): 66%
inhibition of eosinophils in BAL fluid ([1]; po, qd, versus vehicle control): 75%
inhibition of neutrophil infiltration in BAL fluid ([1]; po, qd, versus vehicle control): 65%
inhibition of the increase in total cellularity of BAL fluid ([1]; po, qd, versus vehicle control): 85%
efficacy compared with racemic zileuton or S(−) zileuton [1]: significantly greater efficacy than racemic zileuton
efficacy compared with racemic zileuton or S(−) zileuton ([1]; listed as R(+) zileuton): greater efficacy
S(−) zileuton IC50/R(+) zileuton IC50 ratio [2]: 11.9
IC50 [2]: 399 nM
inhibition at 5 mg/kg ([3]; 36 hours after administration): ~74%
inhibition at 5 mg/kg ([3]; time points between 60 minutes and 24 hours after administration): > 91%
share of the racemic zileuton AUC ([4]; FIG. 1): 58%
AUC ([4]; 5 mg/kg po): 52000 ng·h/mL

CC(C)(O)c1ccccc1CC[C@@H](SCC1(CC(=O)O)CC1)c1cccc(/C=C/c2ccc3ccc(Cl)cc3n2)c1 [Montelukast]
% Inhibition Eosinophils ([5]; 0.17 mg/kg, qd): 99.2 ± 0.02%
% Inhibition Neutrophils ([5]; 0.17 mg/kg, qd): 23.3 ± 6.6%
% Inhibition Total cells ([5]; 0.17 mg/kg, qd): 53.3 ± 6.5%

C[C@@H]1C[C@H]2[C@@H]3CCC4=CC(=O)C=C[C@]4(C)[C@@]3(F)[C@@H](O)C[C@]2(C)[C@@]1(O)C(=O)CO [Dexamethasone]
% Inhibition Eosinophils ([5]; 4 mg/kg, qd): 99.2 ± 0.02%
% Inhibition Neutrophils ([5]; 4 mg/kg, qd): 90.5 ± 1.1%
% Inhibition Total cells ([5]; 4 mg/kg, qd): 62.5 ± 1.5%

C[C@@H](c1cc2ccccc2s1)N(O)C(N)=O [(S)-zileuton]
inhibition of eosinophils in BAL fluid ([1]; po, qd, versus vehicle control): 51%
inhibition of neutrophil infiltration in BAL fluid ([1]; po, qd, versus vehicle control): 35%
inhibition of the increase in total cellularity of BAL fluid ([1]; po, qd, versus vehicle control): not significantly effective
IC50 [2]: 4770 nM

CC(c1cc2ccccc2s1)N(O)C(N)=O (racemic) [racemic zileuton, (±)-1-(1-Benzo[b]thien-2-ylethyl)-1-hydroxyurea]
% Inhibition Eosinophils ([5]; 10 mg/kg, qid): 99.2 ± 0.02%
% Inhibition Neutrophils ([5]; 10 mg/kg, qid): 87.9 ± 2.3%
% Inhibition Total cells ([5]; 10 mg/kg, qid): 62.2 ± 1.7%
inhibition of eosinophils in BAL fluid ([1]; po, qd, versus vehicle control): 67%
inhibition of neutrophil infiltration in BAL fluid ([1]; po, qd, versus vehicle control): 54%
inhibition of the increase in total cellularity of BAL fluid ([1]; po, qd, versus vehicle control): 66%
IC50 [2]: 745 nM
inhibition at 10 mg/kg ([3]; 36 hours after administration): ~84%
inhibition at 10 mg/kg ([3]; time points between 30 minutes and 24 hours after administration): 100%
AUC ([4]; 10 mg/kg po): 87000 ng·h/mL
